For experiment [1], the system named is anti 25-hydroxy Vitamin D monoclonal antibody labeled with acridinium ester (monoclonal antibody 10H9). The experiment can be described thus: Cross-reactivity in ADVIA Centaur Vitamin D Total assay. Type of experiment: binding, mouse. The procedure:
Biological sample is added to a reaction cuvette followed by displacement buffer and allowed to react for 4.5 minutes. Monoclonal antibody conjugated to acridinium ester is added and allowed to react for 5.5 minutes to bind 25-hydroxyvitamin D in the sample. […] The reaction cuvette is washed, and acid and base reagents are added to initiate the chemiluminescent reaction. The time-to-result is 18 minutes. An inverse relationship exists between the amount of 25-hydroxyvitamin D in the patient sample and the amount of relative light units (RLUs) detected by the system.
Assay: The ADVIA Centaur Vitamin D Total assay is a one-pass, 18-minute antibody competitive immunoassay that uses an antifluorescein-labeled monoclonal antibody covalently bound to paramagnetic particles (PMPs), one monoclonal antibody labeled with acridinium ester (AE), and a vitamin D analog labeled with fluorescein (FIG. 8). The Vitamin D Total assay requires 20 μL of sample volume for a single determination. The time-to-first-result is 18 minutes and the throughput is 240 tests/hour.
Briefly, the first step of the sequential step hapten/antibody competitive immunoassay using chemiluminescent technology begins with the analyzer dispensing 20 μL of biological sample into a cuvette followed by addition of 200 μl of displacement buffer (50 mM HEPES, 150 mM NaCl, 0.09% sodium azide, pH=7.5) containing 8-anilino-1-naphthalenesulfonic acid ammonium salt (Sigma-aldrich, St. Louis, MO) and ethylene glycol (Sigma-aldrich, St. Louis, MO) and incubation for 4.5 minutes at 37° C. Lite Reagent (50 μL) containing an anti 25-hydroxy Vitamin D monoclonal antibody labeled with acridinium ester (monoclonal antibody 10H9) is added to the mixture and incubated for 5.5 min at 37° C. C22-PEG-BSA-fluorescein conjugate (50 μL) and anti-fluorescein monoclonal antibody coated paramagnetic microparticles (100 μL) are added to the mixture and incubated for 3.75 minutes at 37° C. The fourth step is separation of Solid Phase complex with bound C22-PEG-BSA-fluorescein conjugate and anti 25-hydroxy vitamin D monoclonal antibody labeled with acridinium ester, followed by washing three times to remove any free Lite Reagent. Last is the sequential dispensing of 300 μL each of acid reagent then base reagent to initiate the chemiluminescent reaction. The total incubation time from sample to result is 18 minutes. There is an indirect relationship between the amount of 25-hydroxy vitamin D present in the biological sample and the amount of chemiluminescence quantified as relative light units (RLUs). In the Centaur-based assay, there is an inverse relationship between RLUs emitted by the acridinium ester and the amount of vitamin D because the 25-hydroxyvitamin D released from the carrier protein in the plasma competes with the Vitamin D-BSA-Fluorescein for binding with a limited amount of the acridinium-labeled 10H9 monoclonal antibody. Higher levels of 25(OH)D in the patient sample would lower the amount of the acridinium-MAb-VitD-BSA-Fluorescein complex on the magnetic particles resulting in lower RLUs.
Cross-reactivity: Five vitamin D derivatives were analyzed using the ADVIA Centaur Vitamin D Total assay. The vitamin D derivatives were spiked into a sample containing 27 ng/mL of vitamin D total. Three replicates of the spiked samples were assayed and the vitamin D total concentration determined.

Another experiment relates to BALB/c mice. As to the kind of experiment: ELISA of sera from mice immunized with vitamin D-C22 BSA. The experiment is classed as in vivo, mouse. To be noted: coat Vit D C22 Lc-BSA 500 ng/mL, individual mice 0-4 in c3-c7. The procedure:
Experiments were conducted to produce antibodies that could preferentially bind to molecules having structural aspects of the vitamin D-C22 antigenic molecule. These experiments were conducted in accordance with the method of Galfre et al. (Nature, 266:550 (1977)), as modified by Oi and Herzenberg (Selected Methods in Cellular Immunology (1980)). Initially, BALB/c mice were immunized with vitamin D-C22 BSA emulsified in Freund's Complete adjuvant followed by a secondary immunization using Freund's Incomplete adjuvant. Sera of immunized mice were collected two weeks after the secondary immunization.
Collected sera were tested for antigen reactivity by ELISA as follows: microtiter plates coated with vitamin D-C22 BSA were incubated with mouse antisera, diluted in dilution buffer, for one hour. Plates were washed and a secondary antibody (goat-anti-mouse IgG) conjugated to horseradish peroxidase (HRPO) in dilution buffer was added and incubated for 30 minutes. Plates were washed and the colorimetric substrate 3,3′,5,5′-tetramethylbenzidine (TMB) was added. The generated color was stopped using 1N sulfuric acid and the optical density was measured at 450 nm.

The mark [2] stands for this setting: crossreactant 100 ng/mL spiked, expected (endogenous) vitamin D total 27 ng/mL.

Values joined by “and” are separate entries in the source; they are usually repeats but may differ in a detail not shown here. Equal entries are not always repeated.

For the compound `C=C1CC[C@@H](O)C/C1=C/C=C1\CCC[C@]2(C)[C@@H]([C@H](C)CCCC(C)(C)O)CC[C@@H]12` [3-epi-25(OH)D3], the “Cross-reactivity (in words)” value in experiment [1] is given as “very low cross-reactivity”. In experiment [1] (setting [2]), the Cross-reactivity amounted to 0.0%.
For the compound “vitamin D-C22 diaminobutane-suberoyl-BSA [Vit D C22]”, the “optical density at 450 nm” value was 3.747 and 3.687 and 3.625 and 3.700 and 3.652 in the experiment on BALB/c mice (serum dilution 1:100); 3.750 and 3.693 and 3.649 and 3.663 and 3.634 with BALB/c mice (serum dilution 1:200); 3.602 and 3.640 and 3.633 (2×) and 3.441 in the experiment with BALB/c mice (serum dilution 1:400); 3.634 and 3.731 and 3.603 and 3.708 and 3.696 in the experiment on BALB/c mice (serum dilution 1:800); 3.578 and 3.605 and 3.532 and 3.638 and 3.687 with BALB/c mice (serum dilution 1:1600); 3.534 and 3.508 and 3.171 and 3.454 and 3.608 with BALB/c mice (serum dilution 1:3200). Further, the “optical density at 450 nm” value in the experiment on BALB/c mice (serum dilution 1:6400) was 3.177 and 3.133 and 2.533 and 3.057 and 3.473; with BALB/c mice (serum dilution 1:12800), 2.449 and 2.406 and 1.731 and 2.325 and 3.042.
For the compound `C=C1CC[C@H](O)C/C1=C/C=C1\CCC[C@]2(C)[C@@H]([C@H](C)/C=C/[C@H](C)C(C)(C)O)CC[C@@H]12` [25-(OH)-Vit D2, 25-hydroxyvitamin D2], the Cross-reactivity is listed as 105% in experiment [1] (at 50 ng/mL) and 102% in experiment [1] (crossreactant 30 ng/mL spiked, expected (endogenous) vitamin D total 27 ng/mL).
For `C=C1CC[C@H](O)C/C1=C/C=C1\CCC[C@]2(C)[C@@H]([C@H](C)/C=C/[C@H](C)C(C)C)CC[C@@H]12` [Vitamin D2], in experiment [1], the “Cross-reactivity (in words)” value is “very low cross-reactivity”. In addition, the Cross-reactivity in experiment [1] (setting [2]) was 0.04%.
In the case of `C=C1CC[C@H](O)C/C1=C/C=C1\CCC[C@]2(C)[C@@H]([C@H](C)CCCC(C)(C)O)CC[C@@H]12` [25-(OH)-Vit D3, 25-hydroxyvitamin D3], in experiment [1] (crossreactant 27 ng/mL, expected (endogenous) vitamin D total 0 ng/mL), the Cross-reactivity came to 100%.
Take `C=C1CC[C@H](O)C/C1=C/C=C1\CCC[C@]2(C)[C@@H]([C@H](C)CCCC(C)C)CC[C@@H]12` [Vitamin D3]: the “Cross-reactivity (in words)” value in experiment [1] is reported as “very low cross-reactivity”. In addition, in experiment [1] (setting [2]), the Cross-reactivity came out at 0.04%.

The values above are taken from US12379386B2, “Antibodies to 25-hydroxyvitamin D2 and D3 for detecting total 25-hydroxyvitamin D” (Siemens Healthcare Diagnostics Inc., priority 2011, dated 2025).
